Test results taken from ChEMBL document CHEMBL4138126, “Synthesis, antiproliferative, anti-tubulin activity, and docking study of new 1,2,4-triazoles as potential combretastatin analogues” (Eur J Med Chem, 2017).

Experiments:
Assay type in all cases: functional
HepG2 [1] = assay: Induction of apoptosis in human HepG2 cells assessed as necrotic cells level at 1.41 uM by Annexin V and propidium iodide staining based flow cytometry
HepG2 [2] = assay: Induction of apoptosis in human HepG2 cells assessed as early apoptotic cells level at 1.41 uM by Annexin V and propidium iodide staining based flow cytometry
HepG2 [3] = assay: Induction of apoptosis in human HepG2 cells assessed as late apoptotic cells level at 1.41 uM by Annexin V and propidium iodide staining based flow cytometry
HepG2 [4] = assay: Induction of cell cycle arrest in human HepG2 cells assessed as accumulation at G2 phase at cytotoxic IC50 by propidium iodide staining based flow cytometry (reference value: 7.2%)
HepG2 [5] = assay: Induction of cell cycle arrest in human HepG2 cells assessed as accumulation at G1 phase at cytotoxic IC50 by propidium iodide staining based flow cytometry (reference value: 66.4%)
HepG2 [6] = assay: Induction of apoptosis in human HepG2 cells at cytotoxic IC50 by propidium iodide staining based flow cytometry (reference value: 1.2%)

## CCOc1ccc(-n2nc(C(=O)NCc3cc(F)cc(F)c3)nc2-c2cc(OC)c(OC)c(OC)c2)cc1
HepG2 [1]
  Activity: 3%
HepG2 [2]
  Activity: 21%
HepG2 [3]
  Activity: 14%
HepG2 [4]
  Activity: 21.6%
HepG2 [5]
  Activity: 35.4%
HepG2 [6]
  Activity: 16.7%
